We go through six compounds from PMC9099122 (Clinical and Translational Science, 2022).

Each structure is given as a SMILES string. Values joined by “and” are separate entries in the source; they are usually repeats but may differ in a detail not shown here. Equal values may be shown once. Read-outs that look alike come from different tables or passages of the source. Marks after values point to notes of the source that are not given here.

The format of series [1] is in vivo, human. As to conditions: for M:P AUCinf ratio, relative bioavailability point estimate / M:P AUCt ratio, relative bioavailability point estimate: Day 11 vs. day 1; for Cmax, geometric mean (mean, %CV): N = 20; for change in terminal elimination half-life / change in Tmax: day 11 compared to day 1, all subjects.
Series [2] has as its system P‐gp. As to conditions: following elagolix 200 mg b.i.d. regimen; cited from earlier work.
The nature of series [3]: Elagolix plasma concentrations on day 11 of this study. The class given is in vivo. As to conditions: female, human, oral, 300 mg.
The subject of series [4] is P‐gp. As to conditions: in vitro; cited from earlier work.
The test system of a further series is CYP3A4. As to conditions: cited from earlier work.
The next series concerns CYP3A. As to conditions: in vitro; cited from earlier work.
The subject of series [5] is CYP2C19. Put plainly: Clinical classification of elagolix as CYP2C19 inhibitor from omeprazole DDI. The class given is in vivo, human. As to conditions: elagolix 300 mg b.i.d., FDA criteria for clinical CYP enzyme inhibitors.
In series [6] the test system is CYP2C19. As to conditions: in vitro; cited from earlier work.
The conditions of series [7]: cited from earlier work.
For series [8] the following is noted: low aqueous solubility and high permeability; cited from earlier work.
The conditions of series [9]: rabbits, coadministration with verapamil; cited from earlier work.
The conditions of series [10]: no reference given; cited from earlier work.
Setting [11] is: Day 1, omeprazole 40 mg (reference).
The mark [12] stands for this setting: Day 11, elagolix 300 mg b.i.d. + omeprazole 40 mg (test).
Where [13] appears, read: Study day 1, omeprazole 40 mg alone.
[14] abbreviates: Study day 11, omeprazole 40 mg + elagolix 300 mg b.i.d.
[15] abbreviates: day 11 (elagolix 300 mg b.i.d.) vs day 1, all subjects.

Consider `COc1ccc2nc([S+]([O-])Cc3ncc(CO)c(OC)c3C)[nH]c2c1` (stereo not shown) [5‐hydroxyomeprazole], for which, in series [1] (setting [11]), the “M:P AUCinf ratio, central value” worked out at 0.458 and the “M:P AUCt ratio, central value” is given as 0.471. In [1] (setting [12]), the “M:P AUCinf ratio, central value” came to 0.198 and the “M:P AUCt ratio, central value” stood at 0.194. In addition, in series [1], the “M:P AUCinf ratio, relative bioavailability point estimate” value was 0.432; the “M:P AUCt ratio, relative bioavailability point estimate” value was 0.412; the “change in terminal elimination half-life” value is “unchanged”. Besides, in [1] (setting [13]), the “AUCinf, geometric mean (mean, %CV)” value is on record as 883 (932, 33) ng•h/ml; the “AUCt, geometric mean (mean, %CV)” value is given as 857 (911, 35) ng•h/ml; the “RAUCinf, metabolite-to-omeprazole AUCinf ratio, median (minimum–maximum)” value is listed as 0.61 (0.048–2.3) ^c; the “RAUCt, metabolite-to-omeprazole AUCt ratio, median (minimum–maximum)” value is listed as 0.65 (0.044–2.1). Besides, in [1] (setting [13]), the “Tmax, median (minimum–maximum)” value is 2.0 (2.0–10) h; the “t1/2, harmonic mean (pseudo-standard deviation)” value is given as 1.88 (0.794) h; the “Cmax, geometric mean (mean, %CV)” value is given as 195 (238, 61) ng/ml. For the same compound, in series [1] (setting [14]), the “AUCinf, geometric mean (mean, %CV)” value was 664 (679, 21) ng•h/ml; the “AUCt, geometric mean (mean, %CV)” value was 643 (659, 22) ng•h/ml; the “RAUCinf, metabolite-to-omeprazole AUCinf ratio, median (minimum–maximum)” value is given as 0.20 (0.071–0.90); the “RAUCt, metabolite-to-omeprazole AUCt ratio, median (minimum–maximum)” value is reported as 0.20 (0.071–0.84). In series [1] (setting [14]), the “Tmax, median (minimum–maximum)” value is on record as 3.0 (1.0–8.0) h; the “t1/2, harmonic mean (pseudo-standard deviation)” value is recorded as 1.97 (0.901) h; the “Cmax, geometric mean (mean, %CV)” value is reported as 134 (142, 34) ng/ml. For the same compound, the “decrease in AUCinf” value in [1] (day 11 vs day 1, EM subjects) worked out at 23%. For the same compound, in series [1] (day 11 vs day 1, IM subjects), the “decrease in AUCinf” value came to 30%. The “decrease in AUCinf (exposure)” value in [1] (day 11 vs day 1, PM subjects) is reported as 20%. Moreover, in series [1] (day 11 vs day 1, all subjects), the “decrease in AUCinf (exposure)” value is given as 25%, the “decrease in Cmax” value was “approximately 30%”, the “decrease in metabolite-to-parent (M:P) AUC ratio” value is on record as ~ 60% and the “increase in Tmax” value amounted to 1 h.
On to `C[C@H]1O[C@@H](O[C@H]2[C@@H](O)C[C@H](O[C@H]3[C@@H](O)C[C@H](O[C@H]4CC[C@@]5(C)[C@H](CC[C@@H]6[C@@H]5C[C@@H](O)[C@]5(C)[C@@H](C7=CC(=O)OC7)CC[C@]65O)C4)O[C@@H]3C)O[C@@H]2C)C[C@H](O)[C@@H]1O` [digoxin], for which, in the series on P‐gp [2], the “increase in AUC” value is 26% and the “increase in Cmax” value is listed as 71%.
For orientation: Cmax means the peak of the concentration-time curve. What is called IC50 is the point on the concentration scale where inhibition reaches its midpoint. What is called Ki is a measure of affinity in units of concentration, obtained from inhibition or displacement. A word on the kinact: it is the maximal first-order rate at which the target is inactivated. With `COc1cccc(-c2c(C)n(Cc3c(F)cccc3C(F)(F)F)c(=O)n(C[C@H](NCCCC(=O)O)c3ccccc3)c2=O)c1F` [elagolix], the Cmax in series [3] worked out at 1.41 µg/mL. Besides, the IC50 in the series on P‐gp [4] was 54 µM. For the same compound, in the series on CYP3A4 (from midazolam DDI), the CYP3A inducer classification result is “weak to moderate inducer”. The maximum induction in the series with CYP3A is on record as 20 fold. The “clinical CYP2C19 inhibitor classification” value in the series with CYP2C19 [5] is reported as “weak inhibitor”. For the same compound, in the series with CYP2C19 [6], the inhibition constant (Ki) is 34 µM and the maximal inactivation rate constant (kinact) is 0.029 min⁻¹.
For `Cc1ncc2n1-c1ccc(Cl)cc1C(c1ccccc1F)=NC2` [midazolam], the “reduction in AUC” value in the series on CYP3A4 (with elagolix 150 mg q.d.) is 35%; with CYP3A4 (with elagolix 300 mg b.i.d.) it was 54%.
Take `COc1ccc2nc(S(=O)(=O)Cc3ncc(C)c(OC)c3C)[nH]c2c1` [omeprazole sulfone]: in [1] (setting [11]), the “M:P AUCinf ratio, central value” was found to be 0.825 and the “M:P AUCt ratio, central value” turned out to be 0.679. For the same compound, in [1] (setting [12]), the “M:P AUCinf ratio, central value” is 1.028 and the “M:P AUCt ratio, central value” amounted to 1.017. For the same compound, in [1], the “M:P AUCinf ratio, relative bioavailability point estimate” value is 1.246; the “M:P AUCt ratio, relative bioavailability point estimate” value is recorded as 1.497; the “change in Tmax” value is on record as “relatively unchanged”; the “change in terminal elimination half-life” value is given as “relatively unchanged”. For the same compound, the “change in Cmax after elagolix dosing” value in series [1] (PM subjects) is recorded as “unchanged”. In [1] (setting [13]), the “RAUCinf, metabolite-to-omeprazole AUCinf ratio, median (minimum–maximum)” value is 0.85 (0.52–1.1) ^e and the “RAUCt, metabolite-to-omeprazole AUCt ratio, median (minimum–maximum)” value was 0.76 (0.13–1.1). Besides, in [1] (setting [14]), the “RAUCinf, metabolite-to-omeprazole AUCinf ratio, median (minimum–maximum)” value was 0.99 (0.71–1.5) and the “RAUCt, metabolite-to-omeprazole AUCt ratio, median (minimum–maximum)” value is given as 0.97 (0.67–1.5). Further, in series [1] (setting [15]), the “increase in AUCinf (exposure)” value is listed as 2.5 fold and the “increase in Cmax” value was found to be 2.7 fold. Moreover, the increase in exposures in series [1] (day 11 vs day 1, EM and IM subjects) was ~ 3 fold. Moreover, the “increase in AUCinf” value in [1] (day 11 vs day 1, EM subjects) worked out at 2.7 fold. For the same compound, in [1] (day 11 vs day 1, IM subjects), the “increase in AUCinf” value came out at 3 fold. For the same compound, the “increase in metabolite-to-parent (M:P) AUC ratio” value in [1] (day 11 vs day 1, all subjects) amounted to 25%. For the same compound, the “AUCinf on day 11 lower compared to day 1” value in series [1] (one PM subject with AUCinf on both days) is on record as 40%.
Usually Tmax stands for the time from dosing to the highest level. As for `COc1ccc2[nH]c([S+]([O-])Cc3ncc(C)c(OC)c3C)nc2c1` (stereo not shown) [omeprazole, reference compound], the “model-estimated absorption rate constant, higher vs homozygous wild-type” value in [7] (subjects heterozygous for ABCB1 mutant alleles) is 2 fold; in series [7] (subjects homozygous for ABCB1 mutant alleles), 7 fold. The “Biopharmaceutics Classification System (BCS) class” value in series [8] was “Class 2”. The “increase in AUC” value in series [9] is “more than 2 fold”. For the same compound, the “increase in Cmax” value was “more than 2 fold” in [9]; 1.9 fold in [1] (setting [15]); 23% in [1] (day 11 vs day 1, PM subjects). For the same compound, the “increase in AUCinf (exposure)” value in [1] (setting [15]) amounted to 1.8 fold. Also, the “change in Tmax” value in series [1] is on record as “unchanged”. The “change in terminal elimination half-life” value in [1] is on record as “unchanged”. Further, the “increase in AUCinf” value in series [1] (day 11 vs day 1, EM subjects) stood at 2 fold; in series [1] (day 11 vs day 1, IM subjects) it was 2.6 fold. Besides, the “decrease in AUCinf (exposure)” value in series [1] (day 11 vs day 1, PM subjects) stood at 40%. Also, the time of peak concentration (Tmax) in series [1] (human, plasma, oral, 40 mg, Tmax, individual subjects, three PM subjects, day 1) was 8 h. In addition, the “Tmax, individual subjects” value is 10 h and 2 h in series [1] (three PM subjects, day 1); 2 h (2×) and 1 h in [1] (three PM subjects, day 11). Besides, the “estimated fraction absorbed and escaping intestinal first pass (fa*fg)” value in series [10] is “approximately 0.80”.
